Data: US20220340629A1, “Myosin Derived Peptides and Related Compounds with Anticoagulant Activities” (THE SCRIPPS RESEARCH INSTITUTE, priority 0001, published 2022)
Starred links: 1 amine or outer side, 2 acyl side, 3 side chain; linkers in the order of their positions; H or OH if unused. Positions of bridges follow the written chain, without caps; N, C: chain ends. Residues, ends and D or L forms follow the SMILES beside them. Suc = O=C(CCC(=O)[*:2])[*:1]

Tested on: thrombin generation in human platelet poor plasma with skeletal muscle myosin
Assay: Assay 2A: thrombin generation, recalcification of human platelet poor plasma + myosin
Format: biochemical
Conditions: human platelet poor plasma 30%, myosin 50 nM, CaCl2 10 mmol/L; read-out: 2A (recalcification +myosin)
Protocol: Activities of the various peptides and derivative compounds were also examined via assays using recalcification of human plasma. [One of] these assay format (2A) involves monitoring thrombin generation in platelet poor plasma (PPP). Specifically, pooled normal human platelet poor plasma (PPP) (obtained from George King Bio Medical Inc., Overland Park, Kans.) (30%) was incubated with skeletal muscle myosin at 50 nM in the presence of peptide in DMSO or DMSO alone for 5 min at 37° C. Then, fluorogenic thrombin substrate solution (Z-Gly-Gly-Arg-AMC) (I-1140) with CaCl2 (10 mmol/L final) alone was added to the reaction mixture (total 110 μl) to initiate coagulation. Thrombin generation was followed continuously for 25 min using SPECTRAmax GEMINI XS fluorometer (Molecular Devices, Sunnyvale, Calif.) with excitation and emission wavelengths set at 360 and 460 nm, respectively. The first derivative of fluorescence versus time was used to produce thrombin generation curves with the correction for substrate consumption and inner filter effect. For this assay 96 well plate (total 110 μL) or 384 well plates (total 30 μL) were used.
Activities obtained from Assay 2A (recalcification of human plasma in the presence of myosin) were used to rank the various peptides listed in Table 3. As noted above, this assay monitors recalcification of plasma to stimulate thrombin generation. In this assay, potency of the compounds was determined as the peptide concentration for 50% inhibition of thrombin generation, defined as “IC50”.

IC50 | Structure (SMILES)
9.3 µM | CC[C@H](C)[C@H](NC(=O)[C@H](C)NC(=O)[C@H](CCC(=O)O)NC(=O)[C@H](CCCNC(=N)N)NC(=O)[C@H](CCCNC(=N)N)NC(=O)[C@@H]1CCCCNC(=O)CCC(=O)NCCCC[C@@H]2NC(=O)[C@@H](NC(=O)[C@H](C)NC(=O)[C@H](CC(C)C)NC(=O)[C@H](Cc3ccccc3)NC(=O)CNC(=O)[C@H](CCCNC(=N)N)NC(=O)[C@H](CS)NC(=O)[C@H](CCCNC(=N)N)NC(=O)[C@H](C)N)CCCCNC(=O)CCC(=O)NCCCC[C@H](NC(=O)[C@H](CCSC)NC(=O)[C@H](CCCNC(=N)N)NC(=O)[C@H](CCC(N)=O)NC(=O)[C@H](Cc3ccc(O)cc3)NC(=O)[C@H](CCC(=O)O)NC2=O)C(=O)N1)C(=O)N[C@@H](Cc1ccccc1)C(=O)N[C@@H](CS)C(=O)N[C@H](C(=O)N[C@@H](CCC(N)=O)C(=O)N[C@@H](Cc1ccc(O)cc1)C(=O)N[C@@H](CC(N)=O)C(=O)N[C@H](C(=O)N[C@@H](CCCNC(=N)N)C(=O)N[C@@H](CO)C(=O)N[C@@H](Cc1ccccc1)C(=O)N[C@@H](CCSC)C(=O)N[C@@H](CC(N)=O)C(=O)N[C@H](C(=O)N[C@@H](CCCCN)C(=O)N[C@@H](Cc1c[nH]cn1)C(=O)N[C@@H](Cc1c[nH]c2ccccc12)C(=O)N1CCC[C@H]1C(=O)N[C@@H](Cc1c[nH]c2ccccc12)C(N)=O)C(C)C)[C@@H](C)CC)[C@@H](C)CC [HC156] (H-ARCRGFLAKKEYQRMKKRREAIFCIQYNIRSFMNVKHWPW-NH2; linker 9-16, 10-17 via Suc (inferred); N-terminus and C-terminus assumed)
11 µM | CC[C@H](C)[C@H](NC(=O)[C@H](C)NC(=O)[C@H](CCC(=O)O)NC(=O)[C@@H]1CCCCNC(=O)CCC(=O)NCCCC[C@@H]2NC(=O)[C@H](CCC(=O)O)NC(=O)[C@H](C(C)C)NC(=O)[C@@H](NC(=O)[C@H](C)NC(=O)[C@H](CC(C)C)NC(=O)[C@H](Cc3ccccc3)NC(=O)CNC(=O)[C@H](CCCNC(=N)N)NC(=O)[C@H](CS)NC(=O)[C@H](CCCNC(=N)N)NC(=O)[C@H](C)N)CCCCNC(=O)CCC(=O)NCCCC[C@H](NC(=O)[C@H](CCSC)NC(=O)[C@H](CCCNC(=N)N)NC(=O)[C@H](CCC(N)=O)NC2=O)C(=O)N[C@@H](CCC(=O)O)C(=O)N[C@@H](CCCNC(=N)N)C(=O)N1)C(=O)N[C@@H](Cc1ccccc1)C(=O)N[C@@H](CS)C(=O)N[C@H](C(=O)N[C@@H](CCC(N)=O)C(=O)N[C@@H](Cc1ccc(O)cc1)C(=O)N[C@@H](CC(N)=O)C(=O)N[C@H](C(=O)N[C@@H](CCCNC(=N)N)C(=O)N[C@@H](CO)C(=O)N[C@@H](Cc1ccccc1)C(=O)N[C@@H](CCSC)C(=O)N[C@@H](CC(N)=O)C(=O)N[C@H](C(=O)N[C@@H](CCCCN)C(=O)N[C@@H](Cc1c[nH]cn1)C(=O)N[C@@H](Cc1c[nH]c2ccccc12)C(=O)N1CCC[C@H]1C(=O)N[C@@H](Cc1c[nH]c2ccccc12)C(N)=O)C(C)C)[C@@H](C)CC)[C@@H](C)CC [HC157] (H-ARCRGFLAKVEKQRMKERKEAIFCIQYNIRSFMNVKHWPW-NH2; linker 9-16, 12-19 via Suc (inferred); N-terminus and C-terminus assumed)
5.8 µM | CC[C@H](C)[C@H](NC(=O)[C@H](C)NC(=O)[C@@H]1CCCCNC(=O)CCC(=O)NCCCC[C@@H]2NC(=O)[C@H](Cc3ccc(O)cc3)NC(=O)[C@H](CCC(=O)O)NC(=O)[C@H](C(C)C)NC(=O)[C@@H](NC(=O)[C@H](C)NC(=O)[C@H](CC(C)C)NC(=O)[C@H](Cc3ccccc3)NC(=O)CNC(=O)[C@H](CCCNC(=N)N)NC(=O)[C@H](CS)NC(=O)[C@H](CCCNC(=N)N)NC(=O)[C@H](C)N)CCCCNC(=O)CCC(=O)NCCCC[C@H](NC(=O)[C@H](CCSC)NC(=O)[C@H](CCCNC(=N)N)NC2=O)C(=O)N[C@@H](CCC(=O)O)C(=O)N[C@@H](CCCNC(=N)N)C(=O)N[C@@H](CCCNC(=N)N)C(=O)N1)C(=O)N[C@@H](Cc1ccccc1)C(=O)N[C@@H](CS)C(=O)N[C@H](C(=O)N[C@@H](CCC(N)=O)C(=O)N[C@@H](Cc1ccc(O)cc1)C(=O)N[C@@H](CC(N)=O)C(=O)N[C@H](C(=O)N[C@@H](CCCNC(=N)N)C(=O)N[C@@H](CO)C(=O)N[C@@H](Cc1ccccc1)C(=O)N[C@@H](CCSC)C(=O)N[C@@H](CC(N)=O)C(=O)N[C@H](C(=O)N[C@@H](CCCCN)C(=O)N[C@@H](Cc1c[nH]cn1)C(=O)N[C@@H](Cc1c[nH]c2ccccc12)C(=O)N1CCC[C@H]1C(=O)N[C@@H](Cc1c[nH]c2ccccc12)C(N)=O)C(C)C)[C@@H](C)CC)[C@@H](C)CC [HC158] (H-ARCRGFLAKVEYKRMKERRKAIFCIQYNIRSFMNVKHWPW-NH2; linker 9-16, 13-20 via Suc (inferred); N-terminus and C-terminus assumed)
13.3 µM | CC[C@H](C)[C@@H]1NC(=O)[C@H](C)NC(=O)[C@@H](NC(=O)[C@H](CCCNC(=N)N)NC(=O)[C@H](CCCNC(=N)N)NC(=O)[C@H](CCC(=O)O)NC(=O)[C@@H]2CCCCNC(=O)CCC(=O)NCCCC[C@H](NC(=O)[C@H](C)NC(=O)[C@H](CC(C)C)NC(=O)[C@H](Cc3ccccc3)NC(=O)CNC(=O)[C@H](CCCNC(=N)N)NC(=O)[C@H](CS)NC(=O)[C@H](CCCNC(=N)N)NC(=O)[C@H](C)N)C(=O)N[C@@H](C(C)C)C(=O)N[C@@H](CCC(=O)O)C(=O)N[C@@H](Cc3ccc(O)cc3)C(=O)N[C@@H](CCC(N)=O)C(=O)N[C@@H](CCCNC(=N)N)C(=O)N[C@@H](CCSC)C(=O)N2)CCCCNC(=O)CCC(=O)NCCCC[C@@H](C(=O)N[C@@H](CC(N)=O)C(=O)N[C@H](C(=O)N[C@@H](CCCNC(=N)N)C(=O)N[C@@H](CO)C(=O)N[C@@H](Cc2ccccc2)C(=O)N[C@@H](CCSC)C(=O)N[C@@H](CC(N)=O)C(=O)N[C@H](C(=O)N[C@@H](CCCCN)C(=O)N[C@@H](Cc2c[nH]cn2)C(=O)N[C@@H](Cc2c[nH]c3ccccc23)C(=O)N2CCC[C@H]2C(=O)N[C@@H](Cc2c[nH]c3ccccc23)C(N)=O)C(C)C)[C@@H](C)CC)NC(=O)[C@H](CCC(N)=O)NC(=O)[C@H]([C@@H](C)CC)NC(=O)[C@H](CS)NC(=O)[C@H](Cc2ccccc2)NC1=O [HC159] (H-ARCRGFLAKVEYQRMKERRKAIFCIQKNIRSFMNVKHWPW-NH2; linker 9-16, 20-27 via Suc (inferred); N-terminus and C-terminus assumed)
3.4 µM | CC[C@H](C)[C@H](NC(=O)[C@H](C)NC(=O)[C@H](CCC(=O)O)NC(=O)[C@H](CCCNC(=N)N)NC(=O)[C@H](CCCNC(=N)N)NC(=O)[C@H](CCC(=O)O)NC(=O)[C@@H]1CCCCNC(=O)CCC(=O)NCCCC[C@H](NC(=O)[C@H](C)NC(=O)[C@H](CC(C)C)NC(=O)[C@H](Cc2ccccc2)NC(=O)CNC(=O)[C@H](CCCNC(=N)N)NC(=O)[C@H](CS)NC(=O)[C@H](CCCNC(=N)N)NC(=O)[C@H](C)N)C(=O)N[C@@H](C(C)C)C(=O)N[C@@H](CCC(=O)O)C(=O)N[C@@H](Cc2ccc(O)cc2)C(=O)N[C@@H](CCC(N)=O)C(=O)N[C@@H](CCCNC(=N)N)C(=O)N[C@@H](CCSC)C(=O)N1)C(=O)N[C@@H](Cc1ccccc1)C(=O)N[C@H]1CCCCNC(=O)CCC(=O)NCCCC[C@@H](C(=O)N[C@@H](Cc2ccccc2)C(=O)N[C@@H](CCSC)C(=O)N[C@@H](CC(N)=O)C(=O)N[C@H](C(=O)N[C@@H](CCCCN)C(=O)N[C@@H](Cc2c[nH]cn2)C(=O)N[C@@H](Cc2c[nH]c3ccccc23)C(=O)N2CCC[C@H]2C(=O)N[C@@H](Cc2c[nH]c3ccccc23)C(N)=O)C(C)C)NC(=O)[C@H](CCCNC(=N)N)NC(=O)[C@H]([C@@H](C)CC)NC(=O)[C@H](CC(N)=O)NC(=O)[C@H](Cc2ccc(O)cc2)NC(=O)[C@H](CCC(N)=O)NC(=O)[C@H]([C@@H](C)CC)NC1=O [HC160] (H-ARCRGFLAKVEYQRMKERREAIFKIQYNIRKFMNVKHWPW-NH2; linker 9-16, 24-31 via Suc (inferred); N-terminus and C-terminus assumed)
6.4 µM | CC[C@H](C)[C@H](NC(=O)[C@H](C)NC(=O)[C@H](CCC(=O)O)NC(=O)[C@H](CCCNC(=N)N)NC(=O)[C@H](CCCNC(=N)N)NC(=O)[C@H](CCC(=O)O)NC(=O)[C@@H]1CCCCNC(=O)CCC(=O)NCCCC[C@H](NC(=O)[C@H](C)NC(=O)[C@H](CC(C)C)NC(=O)[C@H](Cc2ccccc2)NC(=O)CNC(=O)[C@H](CCCNC(=N)N)NC(=O)[C@H](CS)NC(=O)[C@H](CCCNC(=N)N)NC(=O)[C@H](C)N)C(=O)N[C@@H](C(C)C)C(=O)N[C@@H](CCC(=O)O)C(=O)N[C@@H](Cc2ccc(O)cc2)C(=O)N[C@@H](CCC(N)=O)C(=O)N[C@@H](CCCNC(=N)N)C(=O)N[C@@H](CCSC)C(=O)N1)C(=O)N[C@@H](Cc1ccccc1)C(=O)N[C@@H](CS)C(=O)N[C@H](C(=O)N[C@@H](CCC(N)=O)C(=O)N[C@@H](Cc1ccc(O)cc1)C(=O)N[C@@H](CC(N)=O)C(=O)N[C@H](C(=O)N[C@@H](CCCNC(=N)N)C(=O)N[C@H]1CCCCNC(=O)CCC(=O)NCCCC[C@@H](C(=O)N2CCC[C@H]2C(=O)N[C@@H](Cc2c[nH]c3ccccc23)C(N)=O)NC(=O)[C@H](Cc2c[nH]cn2)NC(=O)[C@H](CCCCN)NC(=O)[C@H](C(C)C)NC(=O)[C@H](CC(N)=O)NC(=O)[C@H](CCSC)NC(=O)[C@H](Cc2ccccc2)NC1=O)[C@@H](C)CC)[C@@H](C)CC [HC161] (H-ARCRGFLAKVEYQRMKERREAIFCIQYNIRKFMNVKHKPW-NH2; linker 9-16, 31-38 via Suc (inferred); N-terminus and C-terminus assumed)
